According to patent US10513521B2, “Compositions and methods for inhibiting BMP” (The Brigham and Women's Hospital, Inc., priority 2014, dated 2019):
Values joined by “and” are separate entries in the source; they are usually repeats but may differ in a detail not shown here. Equal values may be shown once.

Experiments:
ALK3 = ALK3 (Homo sapiens, UniProt P36894); assay: TR-FRET enzymatic ALK kinase assay, ALK3
Procedure: (§1) Briefly, the ALKs enzymatic assay was initiated by dispense 2.5 μl enzyme in 1× kinase reaction buffer. The assay plate was then added with compounds followed by incubation at room temperature for 10 minutes. Then 2.5 μl/well substrate was added.

ALK6 = ALK6 (Homo sapiens, UniProt O00238); assay: TR-FRET enzymatic ALK kinase assay, ALK6
Sequence of ALK6 (O00238 14-502): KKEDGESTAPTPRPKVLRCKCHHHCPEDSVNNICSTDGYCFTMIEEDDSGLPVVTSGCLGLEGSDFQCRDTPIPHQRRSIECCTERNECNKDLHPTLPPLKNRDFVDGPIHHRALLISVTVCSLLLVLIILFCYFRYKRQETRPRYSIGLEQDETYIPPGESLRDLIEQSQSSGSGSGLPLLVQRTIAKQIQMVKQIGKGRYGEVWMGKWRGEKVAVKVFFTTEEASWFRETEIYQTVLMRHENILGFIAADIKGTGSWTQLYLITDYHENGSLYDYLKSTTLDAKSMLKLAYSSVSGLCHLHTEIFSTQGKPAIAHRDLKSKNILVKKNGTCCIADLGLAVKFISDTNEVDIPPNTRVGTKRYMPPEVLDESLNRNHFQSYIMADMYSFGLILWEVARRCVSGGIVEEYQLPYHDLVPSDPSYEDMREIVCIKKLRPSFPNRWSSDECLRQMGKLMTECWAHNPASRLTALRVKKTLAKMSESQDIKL
Procedure: as §1

ALK2 = biological target: T1, ALK2 (Homo sapiens, UniProt Q04771); assay: TR-FRET enzymatic ALK kinase assay, ALK2
T1 sequence (Q04771 21-509): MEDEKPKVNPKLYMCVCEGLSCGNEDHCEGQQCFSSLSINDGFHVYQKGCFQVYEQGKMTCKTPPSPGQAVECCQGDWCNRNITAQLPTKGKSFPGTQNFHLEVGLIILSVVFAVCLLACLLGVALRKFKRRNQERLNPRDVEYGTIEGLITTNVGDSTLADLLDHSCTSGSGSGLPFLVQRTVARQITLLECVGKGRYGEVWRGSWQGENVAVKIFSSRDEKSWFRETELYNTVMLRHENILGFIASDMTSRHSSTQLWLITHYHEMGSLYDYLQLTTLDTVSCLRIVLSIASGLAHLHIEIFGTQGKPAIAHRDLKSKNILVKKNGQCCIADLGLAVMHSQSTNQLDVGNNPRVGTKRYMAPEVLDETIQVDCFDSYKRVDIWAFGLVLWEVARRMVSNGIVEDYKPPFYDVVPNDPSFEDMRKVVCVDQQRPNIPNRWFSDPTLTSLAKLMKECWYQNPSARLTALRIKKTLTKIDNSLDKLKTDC
Procedure: as §1

ALK4 = biological target: T2, ALK4 (Homo sapiens, UniProt P36896); assay: TR-FRET enzymatic ALK kinase assay, ALK4
T2 sequence (P36896 24-505): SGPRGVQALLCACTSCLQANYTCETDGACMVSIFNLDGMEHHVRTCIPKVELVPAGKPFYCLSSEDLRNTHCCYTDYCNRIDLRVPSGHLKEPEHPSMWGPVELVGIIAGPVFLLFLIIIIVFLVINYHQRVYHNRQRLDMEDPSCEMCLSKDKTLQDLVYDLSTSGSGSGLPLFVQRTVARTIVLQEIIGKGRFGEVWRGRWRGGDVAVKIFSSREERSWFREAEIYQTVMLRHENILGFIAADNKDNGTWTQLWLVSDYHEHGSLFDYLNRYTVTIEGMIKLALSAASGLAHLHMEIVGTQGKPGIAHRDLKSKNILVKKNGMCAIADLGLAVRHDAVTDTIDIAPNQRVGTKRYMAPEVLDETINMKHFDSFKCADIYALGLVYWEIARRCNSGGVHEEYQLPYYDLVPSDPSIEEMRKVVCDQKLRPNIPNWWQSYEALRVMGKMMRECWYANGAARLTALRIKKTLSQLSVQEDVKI
Procedure: as §1

ALK1 = biological target: T3, ALK1 (Bos taurus, UniProt A4FUX2); assay: In-cell Western ALK1 assay (BAOEC cells, BMP9 as agonist); type: cell-based, Bovine; settings: read-out: BMP9 ICW
T3 construct: The BAOEC cell line was employed for the measurement of ALK1 activity using BMP9 as the agonist; host or cells: BAOEC (bovine aortic endothelial cells)
T3 sequence (A4FUX2 23-503): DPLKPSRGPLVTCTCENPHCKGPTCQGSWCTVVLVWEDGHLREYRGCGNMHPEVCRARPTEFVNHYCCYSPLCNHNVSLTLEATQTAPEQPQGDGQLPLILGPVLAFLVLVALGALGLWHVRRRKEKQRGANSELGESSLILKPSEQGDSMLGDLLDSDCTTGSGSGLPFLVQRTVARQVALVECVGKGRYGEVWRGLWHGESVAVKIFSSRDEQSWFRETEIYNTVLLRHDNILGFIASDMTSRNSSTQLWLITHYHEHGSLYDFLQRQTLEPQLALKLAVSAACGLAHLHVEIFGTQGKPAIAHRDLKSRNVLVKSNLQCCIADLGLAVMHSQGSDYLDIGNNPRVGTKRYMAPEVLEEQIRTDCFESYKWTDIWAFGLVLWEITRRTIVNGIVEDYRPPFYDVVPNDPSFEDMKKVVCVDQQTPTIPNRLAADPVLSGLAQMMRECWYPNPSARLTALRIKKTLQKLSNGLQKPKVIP
From the text: 3. In-Cell Western ALK1 and ALK2 Assays in 384-Well Plate Format.
We also optimized cell-based In-cell Western assays for measurements of ALK1 and ALK2 activities that were used to determine compound activities in these two kinases. The cell lines and agonists used were same as described in above cell-based HTRF ALK1 and ALK2 assays. The initial cell plating and compound treatment were also same. The main difference is the detection of phosphorylation status of SMAD1. In t-cell Western assay, the cells were fixed and phosphorylation status of SMAD1 was detected by the ELISA instead of using the HTRF assay kit in above assay.
C2C12 cells and RPMI 1640 medium were obtained from ATCC (Manassas, Va.) and Bovine Aortic endothelial Cells (BAOEC) and epithelial defined growth medium were purchased from Genlantis (San Deigo, Calif.). HyClone Fetal Bovine Serum was obtained from GE healthcare life sciences (Logan, Utah). BMP6 and BMP9 were purchased from R&D System (R&D). Anti-P-SMAD 1/5/8 rabbit mAb and anti-rabbit IgG, HRP-Linked antibody were purchased from Cell Signaling Technology (Danvers, Mass.). BioFX Chemiluminescent Ultra-Sensitive HRP Microwell Substrate ECL Reagent was obtained from SurModics (Edina, Minn.). The compound plates and the white solid MB assay plates were from Greiner Bio-one (Monroe, N.C.).
Similarly as described in above HTRF cell-based assay, this assay was performed in 384 well plate format. C2C12 were grown in T225 flasks were sterilely washed with 1×PBS pre-starved with medium containing 0.1% FBS for 20 hours. Pre-starved cells were then plated in 384 well plate in the starvation medium (containing in 0.1% FBS). After 4 hours, compound dilutions in DMSO were added to the assay plate and incubated for 30 minutes. The assay plate was then added with BMP6 for C2C12 cells or BMP9 for BAOEC cells and incubated for 30 minutes.
Cells were fixed with 50 ul ice-cold methanol and incubated for 15 min after removing the supernatant. The methanol was removed and filled with 0.5% glutaraldehyde and incubated at room temperature for 15 min. The cells were washed in the plate washer with PBS and blocked with 2% BSA in PBS for 1 h at room temperature on the rotator. After removing the blocking reagent, the cells were incubated with the anti-p-SMAD1 antibody in 2% BSA in PBS for overnight at 4° C. on rotator. The cells were washed with PBS in the plate washer and incubated with HRP conjugated second antibody in 2% BSA in PBS for 1 hour at room temperature. After a cell wash with PBS, ECL detection reagent was added and the plate was read in the luminesce mode in the ViewLux plate reader.

Sequence of ALK3 (P36894 24-532): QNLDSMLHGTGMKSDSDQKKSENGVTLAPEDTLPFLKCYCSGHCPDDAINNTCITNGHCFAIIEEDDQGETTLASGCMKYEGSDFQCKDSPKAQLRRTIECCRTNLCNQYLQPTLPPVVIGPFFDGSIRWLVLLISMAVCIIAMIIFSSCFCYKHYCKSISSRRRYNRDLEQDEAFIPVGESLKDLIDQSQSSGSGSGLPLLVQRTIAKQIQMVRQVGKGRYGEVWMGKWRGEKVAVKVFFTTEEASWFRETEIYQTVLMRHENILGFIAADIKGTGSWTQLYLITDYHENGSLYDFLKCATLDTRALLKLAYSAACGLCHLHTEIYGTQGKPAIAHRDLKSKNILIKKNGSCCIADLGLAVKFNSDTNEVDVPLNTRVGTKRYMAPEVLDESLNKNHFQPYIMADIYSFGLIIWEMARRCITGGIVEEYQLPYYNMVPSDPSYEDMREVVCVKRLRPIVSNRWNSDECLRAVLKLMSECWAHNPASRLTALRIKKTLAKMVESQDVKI

IC50 (ALK3)	IC50 (ALK6)	IC50 (ALK2)	IC50 (ALK4)	IC50 (ALK1)	Compound
> 10000 nM	> 10 µM	94 nM	> 10 µM		NS(=O)(=O)c1ccc(-c2cnn3cc(-c4ccc(CCN5CCCCC5)cc4)cnc23)c2ccccc12 [Compound 54, 4-(6-(4-(2-(piperidin-1-yl)ethyl)phenyl)pyrazolo[1,5-a]pyrimidin-3-yl)naphthalene-1-sulfonamide]
1500 nM	2.9 µM	29 nM	> 10 µM	3300 nM and 1400 nM and 3000 nM and 3800 nM and 3600 nM and 1200 nM and 1900 nM	C[S+](=O)([O-])c1cccc(-c2cnn3cc(-c4ccc(OC5(CN6CCCCC6)COC5)cc4)cnc23)c1 [Compound 93, 3-(3-(methylsulfonyl)phenyl)-6-(4-((3-(piperidin-1-ylmethyl)oxetan-3-yl)oxy)phenyl)pyrazolo[1,5-a]pyrimidine]
4600 nM	9.2 µM	94 nM	> 10 µM		CC(C)S(=O)(=O)c1cccc(-c2cnn3cc(-c4ccc(CCN5CCCCC5)cc4)cnc23)c1 [Compound 113, 3-(3-(isopropylsulfonyl)phenyl)-6-(4-(2-(piperidin-1-yl)ethyl)phenyl)pyrazolo[1,5-a]pyrimidine]
310 nM	4.3 µM	13 nM	4.2 µM	1400 nM and 560 nM and 1000 nM and 760 nM and 1500 nM and 310 nM and 830 nM	C[C@@H]1CNC[C@H](C)N1c1ccc(-c2cnc3c(-c4cccc(C(C)(C)O)c4)cnn3c2)cc1 [Compound 103, 2-(3-(6-(4-((2R,6S)-2,6-dimethylpiperazin-1-yl)phenyl)pyrazolo[1,5-a]pyrimidin-3-yl)phenyl)propan-2-ol]
1400 nM	9.6 µM	47 nM	> 10 µM		CC(O)c1cccc(-c2cnn3cc(-c4ccc(OC5(CN6CCCCC6)CC5)cc4)cnc23)c1 (stereo not drawn) [Compound 143, 1-(3-(6-(4-(1-(piperidin-1-ylmethyl)cyclopropoxy)phenyl)pyrazolo[1,5-a]pyrimidin-3-yl)phenyl)ethanol]
18 nM	0.034 µM	8 nM	1.07 µM	42 nM and 53 nM and 66 nM and 78 nM and 91 nM and 28 nM and 49 nM and 51 nM	C[C@@H]1CNC[C@H](C)N1c1ccc(-c2cnc3c(-c4cccc5c(C(N)=O)cccc45)cnn3c2)cc1 [Compound 10, 5-(6-(4-((2S,6R)-2,6-dimethylpiperazin-1-yl)phenyl)pyrazolo[1,5-a]pyrimidin-3-yl)-1-naphthamide]
> 10000 nM	> 10 µM	95 nM	> 10 µM	1400 nM and 2300 nM and 1200 nM	C[S+](=O)([O-])c1cccc(-c2cnn3cc(-c4ccc(OC5(Cn6ccnc6)COC5)cc4)cnc23)c1 [Compound 105, 6-(4-((3-((1H-imidazol-1-yl)methyl)oxetan-3-yl)oxy)phenyl)-3-(3-(methylsulfonyl)phenyl)pyrazolo[1,5-a]pyrimidine]
2600 nM	> 10 µM	83 nM	> 10 µM	3900 nM	CS(=O)(=O)c1cccc(-c2cnn3cc(-c4ccc(OCCN5CCCC5)cc4)cnc23)c1 [Compound 108, 3-(3-(methylsulfonyl)phenyl)-6-(4-(2-(pyrrolidin-1-yl)ethoxy)phenyl)pyrazolo[1,5-a]pyrimidine]
1500 nM	> 10 µM	95 nM	> 10 µM		C[S+](=O)([O-])c1cccc(-c2cnn3cc(-c4ccc(OCCN5CCCCC5)cc4)cnc23)c1 [Compound 109]
1340 nM	12.8 µM	43 nM	30.4 µM	1500 nM	N/C(=N/O)c1ccc(-c2cnn3cc(-c4ccc(N5CCNCC5)cc4)cnc23)c2ccccc12 [Compound 15, N′-hydroxy-4-(6-(4-(piperazin-1-yl)phenyl)pyrazolo[1,5-a]pyrimidin-3-yl)-1-naphthimidamide]
1100 nM	6.3 µM	32 nM	4.1 µM		CC(C)S(=O)(=O)c1cccc(-c2cnn3cc(-c4ccc(N5[C@H](C)CNC[C@@H]5C)cc4)cnc23)c1 [Compound 114, 6-(4-((2R,6S)-2,6-dimethylpiperazin-1-yl)phenyl)-3-(3-(isopropylsulfonyl)phenyl)pyrazolo[1,5-a]pyrimidine]
35 nM	0.183 µM	5 nM	2.34 µM	26 nM	CC(C)(CN1CCCCC1)Oc1ccc(-c2cnc3c(-c4cccc5c(C(N)=O)cccc45)cnn3c2)cc1 [Compound 18, 5-(6-(4-((2-methyl-1-(piperidin-1-yl)propan-2-yl)oxy)phenyl)pyrazolo[1,5-a]pyrimidin-3-yl)-1-naphthamide]
520 nM	5.4 µM	12 nM	4.4 µM	1400 nM and 1200 nM and 1500 nM and 1800 nM and 2600 nM and 690 nM and 770 nM and 1600 nM	CC(O)c1cccc(-c2cnn3cc(-c4ccc(N5[C@H](C)CNC[C@@H]5C)cc4)cnc23)c1 (stereo partly drawn) [Compound 83, 1-(3-(6-(4-((2R,6S)-2,6-dimethylpiperazin-1-yl)phenyl)pyrazolo[5-a]pyrimidin-3-yl)phenyl)ethanol]
1700 nM	9 µM	33 nM	9.1 µM	1500 nM	CC1(c2ccc(-c3cnc4c(-c5cccc(S(C)(=O)=O)c5)cnn4c3)cc2)CCNCC1 [Compound 115, 6-(4-(4-methylpiperidin-4-yl)phenyl)-3-(3-(methylsulfonyl)phenyl)pyrazolo[1,5-a]pyrimidine]
> 10000 nM	> 10 µM	56 nM	> 10 µM		CS(=O)(=O)c1cccc(-c2cnn3cc(-c4ccc(CN5CCCCC5)cc4)cnc23)c1 [Compound 123, 3-(3-(methylsulfonyl)phenyl)-6-(4-(piperidin-1-ylmethyl)phenyl)pyrazolo[1,5-a]pyrimidine]
